In PMC10661773, “Cytotoxic pathways activated by multifunctional thiosemicarbazones targeting sigma-2 receptors in breast and lung carcinoma cells” (Pharmacological Reports, 2023):

Key:
A549 = assay: Cell viability, MTT assay at 48 h; type: cell-based; settings: Homo sapiens, A549; MTT, 48 h; read-out: EC50 ± SEM, tumor cells A549
Experimental: (§1) Human MCF7 breast adenocarcinoma (#HTB-22) and human A549 carcinoma (#CCL-85) cell lines, non-tumor human breast (MCF10A, #CRL-10317) and lung (BEAS-2B, #CRL-9482) cells were obtained from American Type Culture Collection (ATCC, Bethesda, MD). MCF7 cells were cultured in DMEM medium (Gibco Thermo Scientific, Waltham, MA; #10,565,018), A549 in HAM’s F12 medium (Gibco Thermo Scientific; #11,765,054), and BEAS-2B in RPMI-1640 medium (Gibco Thermo Scientific; # 61,870,010), all supplemented with 10% v/v fetal bovine serum (FBS; Sigma, St. Louis, MO; #F4135) and 1% v/v penicillin–streptomycin (Sigma; #P4458). MCF10A cells were cultured in DMEM/F12 medium (Gibco Thermo Scientific; #31,331,028) supplemented with 5% v/v horse serum (Sigma; #H1270) and 1% v/v penicillin–streptomycin, 20 ng/mL epidermal growth factor (Sigma, #E4127), 10 µg/mL insulin (Sigma, #I3536), […] hydrocortisone (Sigma, #H0888), 100 ng/mL cholera toxin (Sigma, #C8052). Cells were kept in a humidified incubator at 37 °C with 5% CO2.
(§2) Cell growth was determined using the MTT assay at 48 h. On day 1, 25,000 cells/well were seeded into 96-well plates in a volume of 100 μL. On day 2, the various drug concentrations (1 μM–100 μM) were added. In all experiments, the various drug solvents (EtOH, Sigma, # E7148; DMSO, Sigma, # D8418) were added to each control to evaluate possible cytotoxicity of the solvent. After the established incubation time with drugs (48 h), MTT (0.5 mg/mL, Sigma # M2003) was added to each well, and after 3–4 h incubation at 37 °C, the supernatant was removed. Formazan crystals were solubilized using 100 μl of DMSO/EtOH (1:1) and absorbance values at 570 and 630 nm were determined on the microplate reader Victor 3 from PerkinElmer Life Sciences (Waltham, MA).

BEAS-2B = assay: Cell viability, MTT assay at 48 h; type: cell-based; settings: Homo sapiens, read-out: EC50 ± SEM, normal cells BEAS-2B
Experimental: as §1, §2

MCF10A = assay: Cell viability, MTT assay at 48 h; type: cell-based; settings: Homo sapiens, MCF-10A, read-out: EC50 ± SEM, normal cells MCF10A
Experimental: as §1, §2

MCF7 = assay: Cell viability, MTT assay at 48 h; type: cell-based; settings: Homo sapiens, MCF7; MTT, 48 h; read-out: EC50 ± SEM, tumor cells MCF7
Experimental: as §1, §2

MCF7 and A549 cell lines = assay: Cytotoxic activity across the two tumor cell lines (MTT); type: cell-based; settings: Homo sapiens; MCF7 and A549, MTT 48 h; read-out: EC50 range in the two tumor cell lines
Experimental: as §1
Cell growth was determined using the MTT assay at 48 h. On day 1, 25,000 cells/well were seeded into 96-well plates in a volume of 100 μL. […] Formazan crystals were solubilized using 100 μl of DMSO/EtOH (1:1) and absorbance values at 570 and 630 nm were determined on the microplate reader Victor 3 from PerkinElmer Life Sciences (Waltham, MA).

caspase 9 in A549 cells = assay: Caspase 9 activity, fluorimetric; type: cell-based, human; settings: A549, 2 h, 50 µM
Experimental: (§3) Activation of caspase 3, caspase 7 and caspase 9 was measured using the Caspase 3/7 Fluorescence Assay kit (Cayman Chemical, Ann Arbor, MI; #10,009,135) and the Caspase 9 fluorimetric assay kit (Enzo Life Science, Roma, Italy; #ALX-850-224). The results were expressed as nmoles of the hydrolyzed substrate of each caspase/mg cellular proteins, according to a previously set titration curve.

caspase 9 in MCF7 cells = assay: Caspase 9 activity, fluorimetric; type: cell-based, human; settings: MCF7, 2 h, 50 µM
Experimental: as §3

With `CN(C)C(=S)N/N=C1\C(=O)N(CCCCN2CCC3(CC2)OCc2ccccc23)c2ccccc21` [FA4, (Z)-2-(1-(4-(3H-spiro[isobenzofuran-1,4′-piperidine]-1′-yl)butyl)-2-oxoindolin-3-ylidene)-N,N-dimethylhydrazinecarbothioamide] the EC50 (A549) was 1840 ± 400 nM, the EC50 (BEAS-2B) was 4470 ± 1100 nM and the EC50 (MCF10A) was 4310 ± 700 nM. The EC50 (MCF7) was 1530 ± 300 nM, the EC50 (MCF7 and A549 cell lines) was 1530 to 1840 nM and the “Caspase 9 activation” value (caspase 9 in A549 cells) was “activate”. The “Caspase 9 activation” value (caspase 9 in MCF7 cells) was “activate” and the “Rank order of caspase 9 activation” value (caspase 9 in MCF7 cells) was “FA4 > MLP44 > PS3 > ACThio1”.
